The values below come from patent US20110112053A1, “PHARMACOLOGICAL TARGETING OF VASCULAR MALFORMATIONS” (University of Utah Research Foundation, priority 2008, published 2011).

One data set deals with mice. The following applies: mouse, in vivo.
The next data set has as its system JNK. The data set can be described thus: Immunoblot for phosphorylated and total JNK. Type of data set: cell-based, human. As to conditions: 10 μM Y-27632 for 30 min prior to cell lysis. Here is the method: MAPK Profiling. siRNA transfected cells were lysed in RIPA buffer (50 mM Tris pH 7.4, 150 mM NaCl, 1% NP-40) supplemented with protease and phosphatase inhibitors. Lysates were then analyzed by western blotting. Antibodies to phospho-JNK and total JNK were from Santa Cruz Biotechnology. Antibodies to phospho-ERK, phospho-p38, phospho-MKK4, phospho-MKK7, total ERK, total p38, total MKK4, and total MKK7 were from Cell Signaling Technology. The effect of ROCK inhibitor on JNK was tested by treating cells with 10 μM Y-27632 for 30 min prior to cell lysis. The effect of simvastatin on JNK was determined by treating cells with 10 μM simvastatin for 24 h prior to cell lysis.
On the technique in general: Immunoblotting shows a protein as a band on a membrane.

The test system of data set [1] is CCM2-depleted HMVECs. The data set can be described thus: Phalloidin staining for actin stress fibers. Type of data set: cell-based, human. The procedure:
Immunofluorescent Cell Staining. Glass chamber slides were coated with human fibronectin (Biomedical Technologies, Inc.), and transfected cells were seeded at 50,000 cells per well. For the RhoA and ROCK experiment, cells were treated four days after seeding with 40 μg/mL of cell-permeable C3 transferase (Cytoskeleton, Inc.) or 20 μM Y-27632 for 4 hours. For the simvastatin experiment, cells were treated three days after seeding with 40 μM simvastatin (Calbiochem) or equivalent amounts of ethanol in growth media for 24 hours. Cells were fixed in 4% formaldehyde and incubated with an antibody against β-catenin (BD Biosciences). Fluorescent secondary antibody (Molecular Probes) was used to visualize β-catenin staining Actin cytoskeleton was visualized using fluorescently-conjugated phalloidin (Molecular Probes). Images were obtained with an Olympus FV300 confocal microscope.

The subject of data set [2] is CCM2-depleted HMVECs. Nature of the data set: Transendothelial electrical resistance (barrier function). It counts as cell-based, human. As to conditions: C3 transferase 1 μg ml^−1. Here is the method:
Transendothelial Resistance. An electrode culture array (Applied Biophysics) was coated with human fibronectin and transfected cells were seeded at 50,000 cells per well. Three days after seeding, cells were serum-starved in endothelial basal medium-2 with 0.2% BSA overnight. Transendothelial resistance was measured with an electric cell-substrate impedance sensing system (Applied Biophysics). Cell-permeable C3 transferase (1 μg ml^−1) was added to inhibit RHOA. For basal resistance, 40 wells each were measured for Rho inhibition experiments, six control wells each and ten C3 transferase wells each were measured.

Data set [3] concerns the target geranylgeranyltransferase I (GGTase I) (Homo sapiens, UniProt P53609). The following applies: cited from earlier work.

Consider `C[C@@H](N)[C@H]1CC[C@H](C(=O)Nc2ccncc2)CC1` [Y-27632, (R)-(+)-trans-N-(4-Pyridyl)-4-(1-aminoethyl)-cyclohexanecarboxamide], for which the tolerability in mice result with mice is “do not tolerate”. In the data set with JNK, the “activation (phosphorylation) of JNK” value was “decreased the activation of JNK”. In addition, the “actin stress fiber response” value with CCM2-depleted HMVECs [1] (20 μM Y-27632, 4 hours) is reported as “blocked the stress fiber response”.

C3 transferase: in the data set on CCM2-depleted HMVECs [2], the “barrier function (transendothelial resistance)” value was “significantly rescue barrier function”. Further, the “actin stress fiber response” value in the data set on CCM2-depleted HMVECs [1] (40 μg/mL cell-permeable C3 transferase, 4 hours) is “blocked the stress fiber response”.

Turning to `CC(C)C[C@H](NC(=O)c1ccc(NCc2c[nH]cn2)cc1-c1cccc2ccccc12)C(=O)O.O=C(O)C(F)(F)F` [GGTI-2133, N-[[4-(Imidazol-4-yl)methylamino]-2-(1-naphthyl)benzoyl]leucine trifluoroacetate salt], in data set [3], the “selectivity for GGTase I over farnesyltransferase” value is listed as 140 fold.
